From patent US20250195530A1, “POLQ INHIBITORS” (ASTRAZENECA AB, priority 2022, published 2025) come the findings set out here.

Read-outs that look alike come from different tables or passages of the source.

This assay relates to DLD-1 BRCA2−/− cells. As to the kind of experiment: Homologous recombination synthetic lethal inhibition of proliferation, DLD-1 BRCA2-/- (Cell Titre Glo 3D). The conditions noted are these: Homo sapiens. Type of assay: cell-based. The text has this: This assay identifies anti-proliferative effects of POLQ compounds in the homologous recombination deficient colorectal cell line DLD-1 BRCA2−/− over 8-9 population doublings (7 days for DLD-1 and 12 days for DLD-1 BRCA2−/−). DLD1 BRCA2 wt are used as a control to detect cell toxic effects not specific to homologous recombination deficiency.
DLD-1 BRCA2−/− and DLD-1 cells were kept in continuous culture in Assay Medium (RPMI 1640 phenol red free (Sigma R7509) containing 1% GlutaMAX (Gibco 35050) and 10% Foetal Bovine Serum (Gibco 10270-106)). On the day of the assay cells in culture of ˜80-90% confluent were used. Cell monolayers were washed with 10 mL PBS, then removed and added 2 mL TrypLE Express (Gibco 12604). The cells with TrypLE Express were incubated for 5 minutes in cell culture incubator and then the detached cells resuspend in 15 mL Assay Medium. Cells were counted using a ViCell and the cell images were monitored for clumps of cells, ideally they should be single or <3 cell clusters. The cells were diluted to 3,000 cells/mL of DLD-1 BRCA2−/− and 1,500 cells/mL of DLD-1 in Assay Medium and 100 μL added per well of transparent bottomed, black, tissue culture-treated 96-well plates (CoStar, No. 3904) Assay Ready Plates. The Assay Ready Plates contain a 10 point 10 μM to 0.51 nM dose range with three-fold dilutions in DMSO with a final volume of 100 nL. The plates were incubated at 37° C. with 5% C02 for 6 days. On day 6, 100 μL/well of Assay Medium was added to duplicate Assay Ready Plates. 90 μL of culture medium was removed from the cell plates and replenished with the Assay Media and compounds from the duplicate Assay Ready Plates using the Bravo. The plates were further incubated at 37° C. with 5% CO2. On day 7 the plates containing DLD-1 and Cell Titre Glo 3D (Promega G9683) were equilibrated to room temperature, then 60 μL of Cell Titre Glo 3D was added per well and incubated on a shaking platform for 30 min. Plates were read on the Envision measuring luminescence for 1 second per well. On day 12 the plates containing DLD-1 BRCA2−/− cells and Cell Titre Glo 3D (Promega G9683) were equilibrated to room temperature, then 60 μL Cell Titre Glo 3D added per well and incubated on a shaking platform for 30 min. Plates were read on the Envision measuring luminescence for 1 second per well. The data was exported into a suitable software package (such as Genedata) to perform curve fitting analysis. Inhibition of cell proliferation was expressed as an IC5o value and was determined by calculation of the concentration of compound that was required to give a 50% reduction of the average maximum Total Intensity signal.

Where [1] appears, read: DLD-1, DLD-1 BRCA2 −/−, mean, read-out: POLQ PD Prolif Lumin BRCA2 −/− mean pIC50 (converted).
The mark [2] stands for this setting: DLD-1, DLD-1 BRCA2 −/− cells, mean, read-out: POLQ PD Prolif Lumin BRCA2 −/− mean pIC50 (converted).
Where [3] appears, read: DLD-1, first proliferation column (c5), DLD-1 BRCA2-/-, read-out: POLQ PD Prolif Lumin (converted).
[4] abbreviates: DLD-1, proliferation, luminescence, taken as DLD-1 BRCA2-/-, read-out: POLQ PD Prolif Lumin (converted).
Where [5] appears, read: DLD-1, DLD-1 BRCA2-/- proliferation, column head only partly shown, read-out: POLQ PD Prolif Lumin (converted).

For the molecule `COc1c(F)cc(Cl)cc1Cn1c(-c2ccc(OCCC(C)C(=O)O)cc2Cl)nc2c(OC3(C)CC3)ncnc21` (racemic) [Example U61, 4-(3-chloro-4-(9-(5-chloro-3-fluoro-2-methoxybenzyl)-6-(1-methylcyclopropoxy)-9H-purin-8-yl)phenoxy)-2-methylbutanoic acid], under setting [1], the IC50 was 158 nM.
Turning to `Cc1ncsc1CCn1c(-c2ccc(CC(N)=O)cc2Cl)nc2c(OC3(C)CC3)ncnc21` [Example T26, 2-(3-chloro-4-(6-(1-methylcyclopropoxy)-9-(2-(4-methylthiazol-5-yl)ethyl)-9H-purin-8-yl)phenyl)acetamide], the IC50 under setting [2] was 316 nM.
In the case of `Cc1ccnc(Cn2c(-c3ccc(C(=O)N4CC(O)C4)cc3Cl)nc3c(OC4(C)CC4)ncnc32)c1` [Example T180, (3-chloro-4-(6-(1-methylcyclopropoxy)-9-((4-methylpyridin-2-yl)methyl)-9H-purin-8-yl)phenyl)(3-hydroxyazetidin-1-yl)methanone], the IC50 under setting [3] was 1000 nM.
On to `Cc1ccnc(Cn2c(-c3ccc(OCC(=O)N4CC[C@@H](O)C4)cc3Cl)nc3c(OC4(C)CC4)ncnc32)c1` [Example T473, (R)-2-(3-chloro-4-(6-(1-methylcyclopropoxy)-9-((4-methylpyridin-2-yl)methyl)-9H-purin-8-yl)phenoxy)-1-(3-hydroxypyrrolidin-1-yl)ethan-1-one], for which the IC50 under setting [4] is 1000 nM.
Still for that read-out and setting: to `Cc1ccnc(Cn2c(-c3ccc(OCC(=O)N[C@@H]4CCOC4)cc3Cl)nc3c(OC4(C)CC4)ncnc32)c1` [Example T478, (R)-2-(3-chloro-4-(6-(1-methylcyclopropoxy)-9-((4-methylpyridin-2-yl)methyl)-9H-purin-8-yl)phenoxy)-N-(tetrahydrofuran-3-yl)acetamide] belongs 501 nM.
Take `Cc1ccc(C)c(Cn2c(-c3ccc(OCCC(C)C(=O)O)cc3Cl)nc3c(OC4(C)CC4)ncnc32)c1` (racemic) [Example T569, 4-(3-chloro-4-(9-(2,5-dimethylbenzyl)-6-(1-methylcyclopropoxy)-9H-purin-8-yl)phenoxy)-2-methylbutanoic acid]: the IC50 under setting [3] is 631 nM.
Consider `Cc1nnc(Cn2c(-c3ccc(CC(N)=O)cc3Cl)nc3c(OC4(C)CC4)ncnc32)s1` [Example T1, 2-(3-chloro-4-(9-((5-methyl-1,3,4-thiadiazol-2-yl)methyl)-6-(1-methylcyclopropoxy)-9H-purin-8-yl)phenyl)acetamide], for which the IC50 under setting [2] is > 10000 nM.
On to `Cc1ccnc(Cn2c(-c3ccc(OCCNC(N)=O)cc3Cl)nc3c(OC4(C)CC4)ncnc32)c1` [Example T133, 1-(2-(3-chloro-4-(6-(1-methylcyclopropoxy)-9-((4-methylpyridin-2-yl)methyl)-9H-purin-8-yl)phenoxy)ethyl)urea], for which, under setting [3], the IC50 is 251 nM.
Turning to `C[C@H](CCOc1cccc(-c2nc3c(OC4(C)CC4)ncnc3n2Cc2cccc(Cl)c2)c1Cl)C(=O)O` [Example T297, (R)-4-(2-chloro-3-(9-(3-chlorobenzyl)-6-(1-methylcyclopropoxy)-9H-purin-8-yl)phenoxy)-2-methylbutanoic acid], the IC50 under setting [5] is 63.1 nM.
In the case of `Cc1ccnc(Cn2c(-c3ccc(C(=O)NC4CC4)cc3Cl)nc3c(OC4(C)CC4)ncnc32)c1` [Example T170, 3-chloro-N-cyclopropyl-4-(6-(1-methylcyclopropoxy)-9-((4-methylpyridin-2-yl)methyl)-9H-purin-8-yl)benzamide], the IC50 under setting [3] was 631 nM.
Consider `Cc1ncccc1Cn1c(-c2ccc(CC(N)=O)cc2Cl)nc2c(OC3(C)CC3)ncnc21` [Example T60, 2-(3-chloro-4-(6-(1-methylcyclopropoxy)-9-((2-methylpyridin-3-yl)methyl)-9H-purin-8-yl)phenyl)acetamide], for which the IC50 under setting [2] was 10000 nM.
As for `CNC(=O)N1CC[C@@H](Oc2ccc(-c3nc4c(OC5(C)CC5)ncnc4n3Cc3cc(C)ccn3)c(Cl)c2)C1` [Example T501, (R)-3-(3-chloro-4-(6-(1-methylcyclopropoxy)-9-((4-methylpyridin-2-yl)methyl)-9H-purin-8-yl)phenoxy)-N-methylpyrrolidine-1-carboxamide], under setting [3], the IC50 is 794 nM.
Regarding `COc1c(Cl)cccc1Cn1c(-c2ccc(OCCC(C)C(=O)O)cc2Cl)nc2c(OC3(C)CC3)ncnc21` (racemic) [Example U3, 4-(3-chloro-4-(9-(3-chloro-2-methoxybenzyl)-6-(1-methylcyclopropoxy)-9H-purin-8-yl)phenoxy)-2-methylbutanoic acid], the IC50 under setting [1] is 3980 nM.
Take `Cc1nn(C)cc1Cn1c(-c2ccc(CC(N)=O)cc2Cl)nc2c(OC3(C)CC3)ncnc21` [Example T33, 2-(3-chloro-4-(9-((1,3-dimethyl-1H-pyrazol-4-yl)methyl)-6-(1-methylcyclopropoxy)-9H-purin-8-yl)phenyl)acetamide]: the IC50 under setting [2] was > 10000 nM.
With `Cc1ccnc(Cn2c(-c3ccc(C(=O)N4CCNC(=O)C4)cc3Cl)nc3c(OC4(C)CC4)ncnc32)c1` [Example T287, 4-(3-chloro-4-(6-(1-methylcyclopropoxy)-9-((4-methylpyridin-2-yl)methyl)-9H-purin-8-yl)benzoyl)piperazin-2-one], the IC50 under setting [5] is > 7940 nM.
As for `Cc1ccnc(Cn2c(-c3ccc(O[C@@H]4CNC(=O)C4)cc3Cl)nc3c(OC4(C)CC4)ncnc32)c1` [Example T184, (S)-4-(3-chloro-4-(6-(1-methylcyclopropoxy)-9-((4-methylpyridin-2-yl)methyl)-9H-purin-8-yl)phenoxy)pyrrolidin-2-one], the IC50 under setting [3] is 251 nM.
As for `Cc1ccnc(Cn2c(-c3ccc(N4CC(O)C4)cc3Cl)nc3c(OC4(C)CC4)ncnc32)c1` [Example T115, 1-(3-chloro-4-(6-(1-methylcyclopropoxy)-9-((4-methylpyridin-2-yl)methyl)-9H-purin-8-yl)phenyl)azetidin-3-ol], the IC50 under setting [3] was 200 nM.
Take `CC1(Oc2ncnc3c2nc(-c2cccc(OCCC(C)(C)C(=O)O)c2Cl)n3Cc2cccc(Cl)c2)CC1` [Example T442, 4-(2-chloro-3-(9-(3-chlorobenzyl)-6-(1-methylcyclopropoxy)-9H-purin-8-yl)phenoxy)-2,2-dimethylbutanoic acid]: the IC50 under setting [4] is 79.4 nM.
Consider `CC1(Oc2ncnc3c2nc(-c2ccc(CC(N)=O)cc2Cl)n3CCc2cccc(Br)n2)CC1` [Example T46, 2-(4-(9-(2-(6-bromopyridin-2-yl)ethyl)-6-(1-methylcyclopropoxy)-9H-purin-8-yl)-3-chlorophenyl)acetamide], for which the IC50 under setting [2] was > 10000 nM.
Same read-out and setting: to `CC1(Oc2ncnc3c2nc(-c2ccc(OCCCO)cc2Cl)n3Cc2cc(C(F)(F)F)ccn2)CC1` [Example T94, 3-(3-chloro-4-(6-(1-methylcyclopropoxy)-9-((4-(trifluoromethyl)pyridin-2-yl)methyl)-9H-purin-8-yl)phenoxy)propan-1-ol] belongs 200 nM.
Regarding `Cc1ccnc(Cn2c(-c3ccc(OCC(=O)N4C[C@@H](O)[C@H](F)C4)cc3Cl)nc3c(OC4(C)CC4)ncnc32)c1` [Example T423, 2-(3-chloro-4-(6-(1-methylcyclopropoxy)-9-((4-methylpyridin-2-yl)methyl)-9H-purin-8-yl)phenoxy)-1-((3R,4R)-3-fluoro-4-hydroxypyrrolidin-1-yl)ethan-1-one], the IC50 under setting [4] is 1000 nM.
For `Cc1ccnc(Cn2c(-c3ccc(CCNC(=O)CO)cc3Cl)nc3c(OC4(C)CC4)ncnc32)c1` [Example T223, N-(3-chloro-4-(6-(1-methylcyclopropoxy)-9-((4-methylpyridin-2-yl)methyl)-9H-purin-8-yl)phenethyl)-2-hydroxyacetamide], the IC50 under setting [5] was 501 nM.
Turning to `Cc1ccnc(Cn2c(-c3ccc(C(=O)N(C)CCC#N)cc3Cl)nc3c(OC4(C)CC4)ncnc32)c1` [Example T286, 3-chloro-N-(2-cyanoethyl)-N-methyl-4-(6-(1-methylcyclopropoxy)-9-((4-methylpyridin-2-yl)methyl)-9H-purin-8-yl)benzamide], under setting [5], the IC50 was 1260 nM.
